{"source": "patent US20160279079A1", "about": "“COMPOSITIONS AND METHODS FOR TREATING BONE DISEASES” (INDIANA UNIVERSITY RESEARCH AND TECHNOLOGY CORPORATION, priority 2013, published 2016)", "type_in_all_cases": "cell-based, mouse", "key": {"[1]": {"system": "Osteocalcin (OCN)", "experiment": "Quantitative real-time PCR, osteocalcin mRNA in MC3T3 E1-14 cells", "settings": "for increase of the level of osteocalcin mRNA: 5 μM salubrinal", "method": "(§1) METHOD EXAMPLE. Quantitative real-time PCR. Total RNA was extracted using an RNeasy Plus mini kit (Qiagen, Germantown, Md., USA). Reverse transcription was conducted with high capacity cDNA reverse transcription kits (Applied Biosystems, Carlsbad, Calif., USA), and quantitative real-time PCR was performed using ABI 7500 with Power SYBR green PCR master mix kits (Applied Biosystems). We evaluated mRNA levels of ATF4, Osteocalcin (OCN), NFATcl, c-Fos, tartrate-resistant acid phosphatase (TRAP), and osteoclast-associated receptor (OSCAR) with the PCR primers listed in Table 1. GAPDH was used for internal control. The relative mRNA abundance for the selected genes with respect to the level of GAPDH mRNA was expressed as a ratio of Streated/Scontrol, where Streated=mRNA level for the cells treated with chemical agents, and Scontrol=mRNA level for control cells.\n(§2) METHOD EXAMPLE. Knockdown of ATF4 and eIF2α by siRNA. Cells were treated with siRNA specific to ATF4 and eIF2α (Life Technologies). Selected target sequences for knockdown of ATF4 and eIF2α were: ATF4, 5′-GCU GCU UAC AUU ACU CUA A-3′; and eIF2α, 5′-CGG UCA AAA UUC GAG CAG A-3′. As a nonspecific control, a negative siRNA (Silencer Select #1, Life Technologies) was used. Cells were transiently transfected with siRNA for ATF4, eIF2α or control in Opti-MEM I medium with Lipofectamine RNAiMAX (Life Technologies). Six hours later, the medium was replaced by regular culture medium. The efficiency of silencing was assessed with immunoblotting or quantitative PCR 48 h after transfection.\nMETHOD EXAMPLE. ATF4-mediated elevation of osteocalcin mRNA in MC3T3 E1-14 cells. Salubrinal is an inhibitor of de-phosphorylation of eIF2α. […] Furthermore, the level of osteocalcin mRNA was increased 3.3±0.5 fold (24 h) and 3.3±0.3 fold (32 h) (FIG. 2B). […] Non-clonal MC3T3 E1 cells also presented elevation of p-eIF2α and ATF4, together with an increase in the mRNA levels of ATF4 and osteocalcin (Supplementary FIG. S2)."}, "[2]": {"system": "osteoclast-associated receptor (OSCAR)", "experiment": "Quantitative real-time PCR, OSCAR mRNA in RAW264.7 cells", "method": "as §1\n(§3) METHOD EXAMPLE. Partial suppression of mRNA levels of NFATcl, c-Fos, TRAP, and OSCAR by salubrinal. […] On day 2, for instance, the RANKL-driven increase was 9.4±0.5 fold (NFATcl), 1.9±0.1 fold (c-fos), 165±4.2 fold (TRAP), and 467±22 fold (OSCAR). The reduction by 20 μM salubrinal was 46% (NFATcl), 32% (c-fos), 35% (TRAP), and 21% (OSCAR) (FIG. 5A).\n(§4) METHOD EXAMPLE. Reduction of RANKL-induced NFATcl, c-Fos, TRAP, and OSCAR by guanabenz. […] The normalized level of “1” was defined as the level for the cells that were not treated with RANKL without administration of guanabenz."}, "[3]": {"system": "c-Fos", "experiment": "Quantitative real-time PCR, c-Fos mRNA in RAW264.7 cells", "method": "as §1, §3, §4"}, "[4]": {"system": "RAW264.7 cells", "experiment": "Osteoclastogenesis in vitro and TRAP staining", "settings": "for growth area covered by multi-nucleated cells: dose dependent; for number of TRAP-positive multi-nucleated cells: with 20 ng/ml RANKL, 5 days of culture", "method": "METHOD EXAMPLE. Inhibition of osteoclastogenesis of RAW264.7 cells by salubrinal. The primary aim of this study is to evaluate the effects of salubrinal on osteoclastogenesis. In response to 0.1-20 μM salubrinal for 24 h, cell mortality and live cell numbers of RAW264.7 pre-osteoclasts was examined. […] The number of live cells was increased by ˜50% by incubation with RANKL, and administration of 10-20 μM salubrinal reduced the numbers approximately by 10% (FIG. 3B).\nMETHOD EXAMPLE. Inhibitory effects of guanabenz on osteoclastogenesis of RAW264.7 cells. To further examine a potential involvement of p-eIF2α in regulation of osteoclastogenesis, we employed guanabenz that also acts as an inhibitor of de-phosphorylation of eIF2α was evaluated. […] Compared to the number of TRAP-positive multi-nucleated cells of 377 39 (RANKL only), guanabenz reduced the number of differentiated osteoclasts to 364±38 (1 μM), 288±51 (5 μM), 189±25 (10 μM), and 73±16 (20 μM).\nMETHOD EXAMPLE. Osteoclastogenesis in vitro and TRAP (Tartrate-resistant acid phosphatase) staining. RAW264.7 cells were plated at a density of 5×10^3/cm^2 into a 12-well or a 60 mm dish, and cultured with 20 ng/ml RANKL in the presence and absence of salubrinal or guanabenz. The culture medium was replaced every 2 days. After 5 days of culture, the cells were stained for TRAP staining using an acid phosphatase leukocyte kit (Sigma). The number of TRAP-positive cells containing three or more nuclei was determined"}, "[5]": {"system": "NFATc1", "experiment": "NFATc1 expression after RNA interference for eIF2α in RAW264.7 cells", "settings": "for reduction of NFATc1: 20 μM", "method": "METHOD EXAMPLE. Western Immunoblotting. Cells were lysed in a radioimmunoprecipitation assay (RIPA) buffer containing protease inhibitors (Santa Cruz Biotechnology, Santa Cruz, Calif., USA) and phosphatase inhibitors (Calbiochem, Billerica, Mass., USA). Isolated proteins were fractionated using 10-15% SDS gels and electro-transferred to Immobilon-P membranes (Millipore, Billerica, Mass., USA). The membrane was incubated for 1 h with primary antibodies followed by 45 min incubation with goat anti-rabbit or anti-mouse IgG conjugated with horseradish peroxidase (Cell Signaling, Danvers, Mass., USA). We used antibodies against ATF4, NFATcl (Santa Cruz), p-eIF2α (Thermo Scientific, Waltham, Mass., USA), eIF2α, caspase 3, cleaved caspase 3, p38 and p-p38 mitogen activated protein kinase (MAPK), extracellular signal-regulated kinase (ERK) and p-ERK, nuclear factor kappa B (NFκB) p65 and p-NFκB p65 (Cell Signaling), and β-actin (Sigma). Protein levels were assayed using a SuperSignal west femto maximum sensitivity substrate (Thermo Scientific), and signal intensities were quantified with a luminescent image analyzer (LAS-3000, Fuji Film, Tokyo, Japan).\nas §2\nMETHOD EXAMPLE. Reduction in salubrinal/guanabenz-driven suppression of NFATcl expression by RNA interference for eTF2α. To evaluate the effects of eIF2α on the expression level of NFATcl, RNA interference specific for eIF2α together with a non-specific control (NC) was used (FIG. 10). […] However, the expression of NFATcl was reduced only by 20% in the cells transfected with eIF2α siRNA."}, "[6]": {"settings": "20 μM salubrinal, day 2 after RANKL"}, "[7]": {"settings": "cells transfected with the control siRNA"}, "[8]": {"settings": "20 μM guanabenz, 2 days after RANKL"}}}
{"smiles": "O=C(/C=C/c1ccccc1)NC(NC(=S)Nc1cccc2cccnc12)C(Cl)(Cl)Cl", "note": "(centres unmarked) [salubrinal]", "values": [{"measurement": "increase of the level of osteocalcin mRNA", "setting": "[1]; 24 h", "value": "3.3±0.5", "unit": "fold"}, {"measurement": "increase of the level of osteocalcin mRNA", "setting": "[1]; 32 h", "value": "3.3±0.3", "unit": "fold"}, {"measurement": "salubrinal-driven elevation of the osteocalcin mRNA level", "setting": "[1]; ATF4 expression reduced by RNA interference", "value": "suppressed"}, {"measurement": "reduction of OSCAR mRNA level", "setting": "[2]; [6]", "value": 21, "unit": "%"}, {"measurement": "OSCAR mRNA level", "setting": "[2]; 0.1-1 μM salubrinal, with RANKL, day 2 and day 4", "value": "did not contribute to significant reduction"}, {"measurement": "reduction of c-fos mRNA level", "setting": "[3]; [6]", "value": 32, "unit": "%"}, {"measurement": "c-fos mRNA level", "setting": "[3]; 0.1-1 μM salubrinal, with RANKL, except on day 4", "value": "did not contribute to significant reduction"}, {"measurement": "number of TRAP-positive cells", "setting": "[4]; 0.5 μM to 20 μM salubrinal, with RANKL", "value": "reduced the number of TRAP-positive cells in a dose dependent manner"}, {"measurement": "growth area covered by multi-nucleated cells", "setting": "[4]", "value": "significantly reduced"}, {"measurement": "reduction of NFATc1", "setting": "[5]; cells transfected with eIF2α siRNA", "value": 20, "unit": "%"}, {"measurement": "reduction of NFATc1", "setting": "[5]; [7]", "value": 56, "unit": "%"}]}
{"smiles": "N=C(N)N/N=C/c1c(Cl)cccc1Cl", "note": "[guanabenz]", "values": [{"measurement": "mRNA level of osteocalcin", "setting": "[1]; guanabenz dose response", "value": "elevated the mRNA level of osteocalcin in a dose dependent manner"}, {"measurement": "OSCAR mRNA level", "setting": "[2]; [8]", "value": "reduced"}, {"measurement": "OSCAR mRNA level", "setting": "[2]; 5 and 10 μM guanabenz, 2 days after RANKL", "value": "effective in reducing"}, {"measurement": "c-Fos mRNA level", "setting": "[3]; [8]", "value": "reduced"}, {"measurement": "number of TRAP-positive multi-nucleated cells", "setting": "[4]; 1 μM", "value": "364±38"}, {"measurement": "number of TRAP-positive multi-nucleated cells", "setting": "[4]; 5 μM", "value": "288±51"}, {"measurement": "number of TRAP-positive multi-nucleated cells", "setting": "[4]; 10 μM", "value": "189±25"}, {"measurement": "number of TRAP-positive multi-nucleated cells", "setting": "[4]; 20 μM", "value": "73±16"}, {"measurement": "growth area covered by multi-nucleated cells", "setting": "[4]", "value": "significantly reduced"}, {"measurement": "osteoclastogenesis of RAW264.7 cells", "setting": "[4]; guanabenz dose response, with RANKL", "value": "attenuated osteoclastogenesis of RAW264.7 cells in a dose dependent manner"}, {"measurement": "suppressive effect on NFATc1 level", "setting": "[5]; 20 μM guanabenz, transfection of eIF2α siRNA", "value": "abolished the suppressive effect"}, {"measurement": "reduction of NFATc1", "setting": "[5]; [7]", "value": 43, "unit": "%"}]}
